From patent publication US5536749A, “Method for attenuation of sympathetic nervous system activity or onset of migraine by selectively metabolized beta-blocking agents” (SL Pharmaceuticals, Inc., priority 1994, dated 1996)

Test system: isoproterenolinduced tachycardia
Assay: beta-blocking action (potency, onset and duration) in anesthetized dogs after sublingual administration
Type: in vivo, dog
Procedure: The procedure described by J. E. Shaffer et al. in Drug Development Research 1, 221-232 (1986) was used to assess the potency, onset and duration of beta-blocking action of the compounds of Formula I in anesthetized dogs, except that compositions of Formula I were administered sublingually to the dog instead of by intravenous infusion. Using this method the results shown below were obtained with representative compounds A and B.
^1 Defined as the time from sublingual dosing to the first detectable
decrease in heart rate.
^2 Defined as the percent of reduction in isoproterenolinduced
^3 Defined as the times from sublingual dosing to the peak blockade o
isoproterenol observed. (Isoproterenol dose every ten minuets.)
^4 Defined as the time from peak blockade to the decay of blockade by […]

## COC(=O)CCc1ccccc1OCC(O)CNC(C)C (stereo not drawn) [A]
0.16 mpk (mg/kg), first line of Table 1, percent of reduction in isoproterenol-induced tachycardia
  Peak Blockade (% Inhibition): 35 ± 6%
0.16 mpk (mg/kg), first line of Table 1, time from dosing to first detectable decrease in heart rate
  Beta-Blockade Onset: 1 to 2 min
0.16 mpk (mg/kg), first line of Table 1, time from dosing to peak blockade of isoproterenol (dosed every ten minutes)
  Time to Peak Blockade: 10 min
0.16 mpk (mg/kg), first line of Table 1, time from peak blockade to decay of blockade by 50% of the peak
  Time to 50% Recovery from Blockade: 38 min
0.16 mpk (mg/kg), second line of Table 1, percent of reduction in isoproterenol-induced tachycardia
  Peak Blockade (% Inhibition): 39 ± 2%
0.16 mpk (mg/kg), second line of Table 1, time from dosing to first detectable decrease in heart rate
  Beta-Blockade Onset: 3 to 4 min
0.16 mpk (mg/kg), second line of Table 1, time from dosing to peak blockade of isoproterenol (dosed every ten minutes)
  Time to Peak Blockade: 10 min
0.16 mpk (mg/kg), second line of Table 1, time from peak blockade to decay of blockade by 50% of the peak
  Time to 50% Recovery from Blockade: 43 min
0.47 mpk (mg/kg), third line of Table 1, percent of reduction in isoproterenol-induced tachycardia
  Peak Blockade (% Inhibition): 65 ± 4%
0.47 mpk (mg/kg), third line of Table 1, time from dosing to first detectable decrease in heart rate
  Beta-Blockade Onset: 2 to 3 min
0.47 mpk (mg/kg), third line of Table 1, time from dosing to peak blockade of isoproterenol (dosed every ten minutes)
  Time to Peak Blockade: 10 min
0.47 mpk (mg/kg), third line of Table 1, time from peak blockade to decay of blockade by 50% of the peak
  Time to 50% Recovery from Blockade: 81 min
